Several values for one entry are separate records, joined by “and”; a condition that tells them apart may be missing. Equal entries are not always repeated.
Experiments:
Assay in all cases: Enzyme Assay
Conditions in all cases: pH 8
[1] = biological target: Urokinase-type plasminogen activator (Homo sapiens, UniProt P00749)
Protocol: (§1) Data scanning time was set to the 1st and 61st minute after the reaction start. Rutin, esculin, phloridzin and their esters were initially solubilized at a concentration of 10 mM in dimethyl sulphoxide (DMSO) and subsequently incorporated in the reaction mixture to final concentrations in the range of 1-50 μM. Samples were run in triplicate in 96-well plates by MRX microplate reader. Each experiment was performed in triplicate.

[2] = biological target: Chymotrypsin-like elastase family member 1 (Pig, UniProt P00772)
Chymotrypsin-like elastase family member 1, sequence (P00772 whole entry): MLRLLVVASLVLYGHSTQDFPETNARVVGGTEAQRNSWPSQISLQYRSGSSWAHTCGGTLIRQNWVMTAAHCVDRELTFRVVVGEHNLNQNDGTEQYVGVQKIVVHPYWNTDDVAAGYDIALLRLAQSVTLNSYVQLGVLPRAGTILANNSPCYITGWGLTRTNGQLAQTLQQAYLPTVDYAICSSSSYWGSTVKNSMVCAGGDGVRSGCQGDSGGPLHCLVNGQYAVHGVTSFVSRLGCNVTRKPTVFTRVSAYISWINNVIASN
Protocol: as §1

Prothrombin = Prothrombin (Bos taurus, UniProt P00735)
Protocol: as §1

Serine protease 1 = biological target: T1, Serine protease 1 (Bos taurus, UniProt P00760)
T1 sequence (P00760 whole entry): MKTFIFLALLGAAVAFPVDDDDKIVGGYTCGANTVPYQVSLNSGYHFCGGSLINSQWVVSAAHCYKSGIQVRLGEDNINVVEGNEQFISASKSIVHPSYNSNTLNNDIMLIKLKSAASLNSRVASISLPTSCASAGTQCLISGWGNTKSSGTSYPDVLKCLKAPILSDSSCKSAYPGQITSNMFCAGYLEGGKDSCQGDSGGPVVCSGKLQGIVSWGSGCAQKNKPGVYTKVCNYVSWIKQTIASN
Protocol: as §1

O=c1c(O)c(-c2ccc(O)c(O)c2)oc2cc(O)cc(O)c12 [2-(3,4-dihydroxyphenyl)-3,5,7-trihydroxy-chromone;hydrate]
IC50 [1]: 20 µM

N=C(N)Nc1ccc(C(=O)O)cc1 [4-Guanidinobenzoate]
IC50 [2]: 500 µM | IC50 (Prothrombin): 400 µM | IC50 (Serine protease 1): 450 µM | IC50 [1]: 20 µM

CCCCCCCCCCCC(=O)OCC1OC(Oc2cc3ccc(=O)oc3cc2O)C(O)C(O)C1O (stereo not given) [Esculin laurate]
IC50 [2]: 20 µM | IC50 (Prothrombin): 60 µM | IC50 (Serine protease 1): 350 µM | IC50 [1]: 100 µM

CCCCCCCCCCCCCC(=O)OCC1OC(Oc2cc3ccc(=O)oc3cc2O)C(O)C(O)C1O (stereo not given) [Esculin myristate]
IC50 [2]: 25 µM | IC50 (Prothrombin): 54 µM | IC50 (Serine protease 1): 120 µM | IC50 [1]: 100 µM

CCCCCCCCCCCCCCCC(=O)OCC1OC(Oc2cc3ccc(=O)oc3cc2O)C(O)C(O)C1O (stereo not given) [Esculin palmitate]
IC50 [2]: 30 µM | IC50 (Prothrombin): 54 µM | IC50 (Serine protease 1): 210 µM | IC50 [1]: 100 µM

CCCCCCCCCCCCCCCCCC(=O)OCC1OC(Oc2cc3ccc(=O)oc3cc2O)C(O)C(O)C1O (stereo not given) [Esculin stearate]
IC50 [2]: 60 µM | IC50 (Prothrombin): 52 µM | IC50 (Serine protease 1): 50 µM | IC50 [1]: 89 µM

O=c1ccc2cc(OC3OC(CO)C(O)C(O)C3O)c(O)cc2o1 (stereo not given) [Esculin]
IC50 [2]: 100 µM | IC50 (Prothrombin): 250 µM | IC50 (Serine protease 1): 150 µM | IC50 [1]: 25 µM

CCCCCCCCCCCC(=O)OCC1OC(Oc2cc(O)cc(O)c2C(=O)CCc2ccc(O)cc2)C(O)C(O)C1O (stereo not given) [Phloridzin laurate]
IC50 [2]: > 500 µM | IC50 (Prothrombin): 70 µM | IC50 (Serine protease 1): 55 µM | IC50 [1]: 9 µM

CCCCCCCCCCCCCC(=O)OCC1OC(Oc2cc(O)cc(O)c2C(=O)CCc2ccc(O)cc2)C(O)C(O)C1O (stereo not given) [Phloridzin myristate]
IC50 [2]: > 500 µM | IC50 (Prothrombin): 75 µM | IC50 (Serine protease 1): 65 µM | IC50 [1]: 33 µM

CCCCCCCCCCCCCCCC(=O)OCC1OC(Oc2cc(O)cc(O)c2C(=O)CCc2ccc(O)cc2)C(O)C(O)C1O (stereo not given) [Phloridzin palmitate]
IC50 [2]: > 500 µM | IC50 (Prothrombin): 75 µM | IC50 (Serine protease 1): 60 µM | IC50 [1]: 18 µM

CCCCCCCCCCCCCCCCCC(=O)OCC1OC(Oc2cc(O)cc(O)c2C(=O)CCc2ccc(O)cc2)C(O)C(O)C1O (stereo not given) [Phloridzin stearate]
IC50 [2]: > 500 µM | IC50 (Prothrombin): 65 µM | IC50 (Serine protease 1): 215 µM | IC50 [1]: 13 µM

O=C(CCc1ccc(O)cc1)c1c(O)cc(O)cc1OC1OC(CO)C(O)C(O)C1O (stereo not given) [Phloridzin]
IC50 [2]: 100 µM | IC50 (Prothrombin): 320 µM | IC50 (Serine protease 1): 90 µM | IC50 [1]: 80 µM

CCCC(=O)OC1C(C)OC(OCC2OC(Oc3c(-c4ccc(O)c(O)c4)oc4cc(O)cc(O)c4c3=O)C(O)C(O)C2O)C(O)C1O (stereo not given) [Rutin butyrate]
IC50 [2]: > 500 µM | IC50 (Prothrombin): 22 µM | IC50 (Serine protease 1): > 500 µM | IC50 [1]: 8 µM

CCCCCC(=O)OC1C(C)OC(OCC2OC(Oc3c(-c4ccc(O)c(O)c4)oc4cc(O)cc(O)c4c3=O)C(O)C(O)C2O)C(O)C1O (stereo not given) [Rutin caproate]
IC50 [2]: > 500 µM | IC50 (Prothrombin): 32 µM | IC50 (Serine protease 1): > 500 µM | IC50 [1]: 14 µM and 20 µM

CCCCCCCC(=O)OC1C(C)OC(OCC2OC(Oc3c(-c4ccc(O)c(O)c4)oc4cc(O)cc(O)c4c3=O)C(O)C(O)C2O)C(O)C1O (stereo not given) [Rutin caprylate]
IC50 [2]: > 500 µM | IC50 (Prothrombin): 25 µM | IC50 (Serine protease 1): > 500 µM | IC50 [1]: 32 µM

CCCCCCCCCCCC(=O)OC1C(C)OC(OCC2OC(Oc3c(-c4ccc(O)c(O)c4)oc4cc(O)cc(O)c4c3=O)C(O)C(O)C2O)C(O)C1O (stereo not given) [Rutin laurate]
IC50 [2]: > 500 µM | IC50 (Prothrombin): 14 µM | IC50 (Serine protease 1): 90 µM | IC50 [1]: 50 µM

CC/C=C\C/C=C\C/C=C\CCCCCCCC(=O)OC1C(C)OC(OCC2OC(Oc3c(-c4ccc(O)c(O)c4)oc4cc(O)cc(O)c4c3=O)C(O)C(O)C2O)C(O)C1O (stereo not given) [Rutin linolenate]
IC50 [2]: > 500 µM | IC50 (Prothrombin): 7 µM | IC50 (Serine protease 1): 50 µM | IC50 [1]: 20 µM

CCCCCCCCCCCCCC(=O)OC1C(C)OC(OCC2OC(Oc3c(-c4ccc(O)c(O)c4)oc4cc(O)cc(O)c4c3=O)C(O)C(O)C2O)C(O)C1O (stereo not given) [Rutin myristate]
IC50 [2]: > 500 µM | IC50 (Prothrombin): 10 µM | IC50 (Serine protease 1): 130 µM | IC50 [1]: 15 µM

CCCCCCCC/C=C\CCCCCCCC(=O)OC1C(C)OC(OCC2OC(Oc3c(-c4ccc(O)c(O)c4)oc4cc(O)cc(O)c4c3=O)C(O)C(O)C2O)C(O)C1O (stereo not given) [Rutin oleate]
IC50 [2]: > 500 µM | IC50 (Prothrombin): 9 µM | IC50 (Serine protease 1): 60 µM | IC50 [1]: 25 µM

CCCCCCCCCCCCCCCC(=O)OC1C(C)OC(OCC2OC(Oc3c(-c4ccc(O)c(O)c4)oc4cc(O)cc(O)c4c3=O)C(O)C(O)C2O)C(O)C1O (stereo not given) [Rutin palmitate]
IC50 [2]: > 500 µM | IC50 (Prothrombin): 3 µM | IC50 (Serine protease 1): 40 µM | IC50 [1]: 15 µM

CCCCCCCCCCCCCCCCCC(=O)OC1C(C)OC(OCC2OC(Oc3c(-c4ccc(O)c(O)c4)oc4cc(O)cc(O)c4c3=O)C(O)C(O)C2O)C(O)C1O (stereo not given) [Rutin stearate]
IC50 [2]: > 500 µM | IC50 (Prothrombin): 8 µM | IC50 (Serine protease 1): 40 µM | IC50 [1]: 15 µM

CC1OC(OCC2OC(Oc3c(-c4ccc(O)c(O)c4)oc4cc(O)cc(O)c4c3=O)C(O)C(O)C2O)C(O)C(O)C1O (stereo not given) [Rutin]
IC50 [2]: 100 µM | IC50 (Prothrombin): 25 µM | IC50 (Serine protease 1): 40 µM | IC50 [1]: 6 µM

From BindingDB's records for doi:10.3109/14756366.2010.616860 (Slovak University of Technology, 2012)
